Reference: patent US8759488B2, “High stability streptavidin mutant proteins” (Isis Innovation Limited, priority 2009, dated 2014)

Experiments:
[1] = tested on: AP-IGF1R/BirA-ER expressing COST cells; experiment: Cellular imaging with Alexa Fluor 555 conjugates; assay type: cell-based
Protocol: Streptavidin and […] labeled with Alexa Fluor 555 by adding 1/10 volume of 1 M NaHCO3 pH 8.3 and then a 10-fold molar excess of Alexa Fluor 555 succinimidyl ester (Invitrogen) (stock dissolved at 1 mg/mL in dry dimethylformamide) and incubating for 4 hr at room temperature. Free dye was separated using 1 mL packed volume Sephadex G-25 (Sigma) in a poly-prep column. Fractions containing labelled protein were pooled and dye was further removed by three rounds of dialysis in PBS. COST cells were grown in DMEM with 10% Fetal Calf Serum, 50 U/mL penicillin and 50 μg/mL streptomycin. Cells were transfected using Lipofectamine 2000 (Invitrogen) following manufacturer's instructions with 0.25 μg AP-IGF1R, 0.2 μg BirA-ER and 0.05 μg H2B-ECFP per well of a 48 well plate. Cells were incubated with 10 μM biotin overnight for optimum biotinylation by BirA-ER. On the next day, cells were washed 3× in PBS with 5 mM MgCl2 (PBS/Mg) and kept thereafter at 4° C. Cells were incubated for 15 min in PBS/Mg with 1% dialyzed BSA and 0.4 μM Alexa Fluor 555 conjugated […]. Cells were washed with PBS/Mg 3× before imaging live. Cells were imaged using a wide-field DeltaVision Core fluorescent microscope (AppliedPrecision) with a 40× oil-immersion lens. ECFP (436DF20 excitation, 480DF40 emission, Chroma 86002v1 dichroic), Alexa Fluor 555 (540D420 excitation, 600DF50 emission, Chroma 84100bs polychroic), and bright-field images were collected and analyzed using softWoRx 3.6.2 software. Typical exposure times were 0.1-1.0 s and fluorescence images were background-corrected. Different samples in the same experiment were prepared, imaged and analyzed under identical conditions.

[2] = Thermostability of the tetramer structure (SDS-PAGE); assay type: physicochemical; conditions: absence of biotin, heated 3 min
From the text: Streptavidin naturally occurs in tetrameric form i.e. made up of four streptavidin subunits. Streptavidin tetramers will however dissociate into monomeric form at high temperatures. […] For example, thermostability can be measured in terms of the temperature at which 50% of streptavidin is in the tetrameric form and 50% is in the monomeric form i.e. the temperature at which there is 50% dissociation.
Thermostability can be easily determined by heating streptavidin or a mutant thereof to a particular temperature and then placing on ice. The amounts of subunits/tetramers present can be determined using SDS-PAGE and quantifying band intensities.
3 μM streptavidin or traptavidin in PBS was heated at the indicated temperature for 3 min in a Bio-Rad DNA Engine® Peltier Thermal Cycler and then immediately placed on ice (Bayer et al., 1996, Electrophoresis, 17, 1319-1324). Samples were mixed with 6×SDS-PAGE loading buffer and loaded onto a 18% polyacrylamide gel. The 100% monomer positive control was mixed with SDS loading buffer prior to heating at 95° C. for 3 min. Band intensities were quantified using a ChemiDoc XRS imager and QuantityOne 4.6 software (Bio-Rad).

[3] = assay type: binding
Protocol: AFM cantilevers (Veeco MLCT-AUHW) with a nominal spring constant of 0.01 N/m were used in all measurements and calibrated by the thermal fluctuation method (Hutter and Bechhoefer, 1993, Review of Scientific Instruments, 64, 1868-1873). Cantilevers were briefly washed in acetone and then UV irradiated for 15 minutes. Cantilevers were then briefly dipped in 0.1M NaHCO3 pH 9.0, air-dried, and coated in 0.5 mg/mL biotinamidocaproyl-Bovine Serum Albumin (biotin-BSA) (Sigma) overnight at 4° C. in a humidified chamber. Cantilevers were washed three times in PBS and then coated with 0.01-0.3 mg/mL streptavidin or […] for 15 mins at 25° C. […] dishes were coated with 0.1M NaHCO3 pH 9 and then 0.5 mg/mL non-recombinant streptavidin (from Streptomyces avidinii, Pierce) in 0.1M NaHCO3 pH 9 overnight in a humidified chamber at 4° C. Biotinylated agarose beads (Sigma) were aspirated onto the dish. Measurements were conducted at 25° C. with a custom built AFM (Rico and Moy, 2007, J. Mol. Recogniti., 20, 495-501). […] Single molecule rupture forces were determined by calculating the force in the retraction trace at the initial point of rupture, using Igor Pro 6.04 (Wavemetrics Inc.). […] The loading rate was determined as the slope of the force vs time plot before the rupturing of the single molecule bond and significance was evaluated with the Mann-Whitney test.

[4] = Biotin-4-fluorescein (B-4-F) off-rate assay; assay type: binding
Protocol: The off rate of streptavidin or the streptavidin mutants for biotin can be easily measured using the Biotin-4-fluorescein (B-4-F) off-rate assay described in the Examples. In this assay streptavidin (or a mutant thereof) is incubated with 12 nM B-4-F for 30 minutes at 37° C., where the binding of B-4-F to streptavidin quenches fluorescence. Excess biotin (100 μM) is added and fluorescence is then measured every 10 minutes for 10-18 hours. The rate of recovery of fluorescence indicates B-4-F off-rate from the streptavidin. Thus, the quicker that the fluorescence is seen in the sample the higher is the off rate, as fluorescence only starts to increase once B-4-F has dissociated from streptavidin.
The amount of B-4-F recovered during an incubation with wildtype streptavidin is at least 9%, for example 10, 11 or 12%. The amount of B-4-F recovered after a 10 hour incubation with a mutant streptavidin of the present invention may be less than 9%, for example less than 8, 7, 6, 5, 4, 3, 2 or 1%. Particularly, the amount of B-4-F recovered may be 2-3%.
The off-rate of biotin-4-fluorescein from avidin, streptavidin or traptavidin was measured using a PHERAstar plate-reader with 480 nm excitation and 520 nm emission (BMG LABTECH). In this assay the binding of biotin-4-fluorescein to an excess of binding protein results in quenching of fluorescein emission (Kada et al., 1999, Biochim. Biophys. Acta, 1427, 33-43). As the biotin-4-fluorescein dissociates, the fluorescence recovers. The assay was performed in the presence of excess biotin so that sites left open by biotin-4-fluorescein dissociation are immediately re-filled by biotin. 1 μM protein in 10 μL PBS was added to 12 nM biotin-4-fluorescein (Invitrogen), 0.12 mg/mL BSA in 170 μL PBS and incubated for 1 hr at 37° C. 20 μL PBS or 20 μL 1 mM biotin in PBS was then added and fluorescence measurements immediately started at 37° C. Percentage dissociation was calculated as (signal with biotin−signal without biotin)/(signal without quenching−signal without biotin)×100.
Since biotin-4-fluorescein fluorescence is decreased at low pH, 100 nM streptavidin, S52G R53N streptavidin, S52G R53S streptavidin, or traptavidin was incubated with 12 nM biotin-4-fluorescein in 100 mM NaCl, 30 mM sodium citrate pH 5.0 for 3 hr at 25° C., before incubating at 37° C. and adding 100 μM biotin and incubating for various times. Samples were then placed on ice to block further dissociation, adjusted to pH 7.2 with 1M HEPES pH 8.3, and fluorescence intensity was immediately measured as above. p-values were calculated using two-tailed Student t-tests from the data at the final timepoint.

[5] = Thermostability of biotin-conjugate binding (agarose gel); conditions: for dissociation of biotinylated DNA at 70° C.: 3 min
From the text: For example, thermostability for biotin or a biotin conjugate can be measured in terms of the temperature at which 50% of the biotin or biotin conjugate is bound by the streptavidin, i.e. the temperature at which there is 50% dissociation. […] Thermostability for biotin or a biotin conjugate can be easily determined by heating streptavidin or a mutant thereof with biotin or a biotin conjugate to a particular temperature and then placing on ice. The amounts of free versus bound biotin conjugate present can be determined using an agarose gel and quantifying the band intensities.
To determine the thermostability of bioin-conjugate binding, 5.0 μM streptavidin or traptavidin in PBS was incubated with 21 nM monobiotinylated DNA in 4 μL for 30 minutes at 25° C. The samples were made up to a total volume of 10 μL with a final concentration of 100 μM biotin, 20 mM Tris acetate, 1 mM DDT, 2 mM magnesium acetate and 20 mM potassium glutamate pH 7.5 and were incubated for 5 minutes at 25° C. Samples were then heated at the indicated temperature for 3 minutes using a Thermal Cycler and cooled to 10° C. An agarose gel of 1.5% was run at 6.0V/cm in TAE at 25° C. for 45 minutes and DNA stained with ethidium bromide was visualized using a ChemiDoc XRS imager and QuantityOne 4.6 software. The percentages were calculated as 100× the intensity of the band for free DNA divided by the summed intensities of the bands for free and bound DNA. The 439 bp biotinylated DNA was prepared by PCR using Taq polymerase employing the primers Fts1 and the internally biotinylated primer bioFts2 (Eurofins) from the plasmid pJEG41-N1.

[6] = tested on: biotinylated DNA with FtsK50C; experiment: FtsK displacement assay; design: species or system E. coli; conditions: in the presence of ATP, 2 min, 25° C.
Protocol: The FtsK displacement assay was performed at 25° C. in 25 mM Tris pH 7.5, 10 mM MgCl2. 5.9 nM DNA fragment was incubated with 0.5 μM streptavidin or traptavidin for 15 min, followed by 100 μM biotin to block free biotin binding sites. 1 μM FtsK50C was added and allowed to bind to the DNA for 5 min. 2.5 mM ATP was added to start the reaction, which was stopped after 2 min with 0.1% SDS and 20 mM EDTA. Samples were incubated for 20 mM to allow FtsK50C denaturation, mixed with 10× gel loading buffer (250 mM Tris pH 7.5, 20 mM EDTA, 50% glycerol, 2.5% bromophenol blue) and loaded on a 1.5% agarose gel in 1×TBE (89 mM Tris, 89 mM boric acid, 2 mM EDTA, pH 8.3) at 10 V/cm for 2 hr at 25° C. Gels were stained with SYBR Green (Invitrogen) for 2 hr, washed in ddH2O for 30 mM, imaged using a Fuji FLA3000 scanner, and quantified using Image Gauge software (Fuji). p-values were calculated using a two-tailed Student t-test.

[7] = On-rate assay (biotin-4-fluorescein quenching); assay type: binding
Protocol: The on rate can be measured again using an adapted B-4-F assay as described above. […] The on rate can therefore be established by the decrease in the amount of fluorescence which occurs over the incubation time. The faster the rate of decrease in fluorescence, the higher the on rate.
The on-rate of biotin-4-fluorescein from streptavidin or traptavidin was measured in PBS on a PHERAstar plate-reader (BMG LABTECH). In this assay the binding of biotin-4-fluorescein to streptavidin/traptavidin results in quenching of the fluorescein emission (Kada et al., 1999). 20 μL 10 nM streptavidin or traptavidin was added to 180 μL 56 μM biotin-4-fluorescein and the fluorescein emission at measured every 6 s at 25° C. The concentration of free biotin-4-fluorescein was calculated as (signal with biotin−signal without biotin)/(signal without quenching−signal without biotin)×50 μM starting biotin-4-fluorescein. Linear regression using GraphPad Prism was applied to the plot of 1n free biotin-4-fluorescein against time, with the gradient equal to kon×[streptavidin or traptavidin].

[8] = cited from earlier work
[9] = depending on the conjugate; cited from earlier work
[10] = free biotin; cited from earlier work
[11] = 37° C., pH 7.4, excess free biotin

Question: Which results are given for “traptavidin: S52G R53D mutant of core streptavidin with His6 tag, tetramer; subunit SEQ ID NO. 5”?
Answer: binding to untransfected neighboring cells expressing only AP-IGF1R ([1]; Alexa Fluor 555 conjugate): no detectable binding; signal on AP-IGF1R/BirA-ER expressing cells ([1]; Alexa Fluor 555 conjugate): strong signal; specificity for cellular imaging ([1]; Alexa Fluor 555 conjugate): high specificity; staining compared with streptavidin ([1]; each conjugated to Alexa Fluor 555): comparable; binding to equivalently treated cells when pre-blocked with free biotin ([1]; pre-blocked with free biotin): minimal binding; temperature at which there is 50% dissociation of tetramer into monomer [2]: ~85 °C; mechanical stability to a biotinylated ligand [3]: significantly greater mechanical stability than streptavidin; biotin conjugate off-rate (biotin-4-fluorescein dissociation) [4, 11]: dramatically reduced biotin conjugate off-rate; change at the initial time-point (dissociation) [4, 11]: ~2%; dissociation over the subsequent 12 hr [4, 11]: very little dissociation; off-rate at pH 5 of biotin-4-fluorescein ([4]; pH 5, 37° C.): significantly slower than streptavidin; dissociation of biotinylated DNA at 70° C. [5]: most ligand was still bound; dissociated from the DNA by FtsK50C translocation [6]: 11%; on-rate reduction relative to streptavidin [7]: approximately 2 fold

Question: Which “biotin conjugate off-rate (biotin-4-fluorescein dissociation)” value [4, 11] does the source give for “avidin: Avidin (Sigma), biotin binding protein used as comparator [reference compound]” here?
Answer: dissociated very much faster than streptavidin

Question: Which pKa [8] does the source give for O=C(O)CCCC[C@@H]1SC[C@@H]2NC(=O)N[C@@H]21 [biotin, cis-hexahydro-2-oxo H-thieno[3,4] imidazole-4-pentanoic acid] here?
Answer: about 4

Question: What does the source list for “streptavidin: wildtype streptavidin protein comprising four wildtype subunits; core streptavidin with C-terminal His6 used in the tests [reference compound]”?
Answer: half life for conjugated biotin [9]: 6 to 100 h; temperature at which there is 50% dissociation of tetramer into monomer [2]: ~75 °C; temperature at which there is 50% dissociation of tetramer into monomer ([2]; listed as wildtype streptavidin): 70-75 °C; half life of free biotin [10]: approximately 6.6 hr; off rate of biotin [10]: 2.9e-05 s⁻¹; biotin conjugate off-rate (biotin-4-fluorescein dissociation) [4, 11]: dissociated steadily; amount of B-4-F recovered ([4]; 10 hour incubation, 37° C., excess biotin): at least 9%; temperature at which there is 50% dissociation of biotin or biotin conjugate [5]: 50-60 °C; dissociation of biotinylated DNA at 70° C. [5]: complete dissociation; dissociated from the DNA by FtsK50C translocation [6]: 33%
